# Source: patent EP0745599A2, “1-(3-Heterocyclylphenyl)-s-triazine-2,4,6-oxo or thiotrione herbicidal agents” (American Cyanamid Company, priority 1995, dated 1996)
# Key:
# Format in all cases: in vivo
# Settings in all cases: rated four to five weeks after treatment
# CHENOPODIUM ALBUM, L. [1] = assay: Preemergence herbicidal evaluation, CHEAL (Lambsquarters, Common)
# Procedure, shortened: (§1)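 Compound applied preemergence at about 0.125 to 0.50 kg per hectare as an aqueous acetone spray; response scored visually on a 0-9 scale after four to five weeks.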
# ZEA MAYS L. [2] = assay: Postemergence herbicidal evaluation, ZEAMX (Corn, Field)
# Procedure: (§2) In the tests, seedling plants are grown in jiffy flats for about two weeks. The test compounds are dispersed in 50/50 acetone/water mixtures containing 0.5% TWEEN®20, a polyoxyethylene sorbitan monolaurate surfactant of Atlas Chemical Industries, in sufficient quantities to provide the equivalent of about 0.125 kg to 0.500 kg per hectare of active compound when applied to the plants through a spray nozzle operating at 40 psi for a predetermined time. After spraying, the plants are placed on greenhouse benches and are cared for in the usual manner, commensurate with conventional greenhouse practices. From four to five weeks after treatment, the seedling plants are examined and rated according to the rating system set forth below. Where more than one test is involved for a given compound, the data are averaged.
# (§3) Results of herbicide evaluation are expressed on a rating scale (0-9). The scale is based upon a visual observation of plant stand, vigor, malformation, size, chlorosis and overall plant appearance as compared with a control.
# [3] = system: ECHINOCHLOA CRUS-GALLI, (L) BEAU; assay: Preemergence herbicidal evaluation, ECHCG (Barnyardgrass)
# Procedure, shortened: as §1
# [4] = system: GLYCINE MAX(L)MERR. CV. WILLIAMS; assay: Preemergence herbicidal evaluation, GLXMAW (Soybean, Williams)
# Procedure, shortened: as §1
# GALIUM APARINE = assay: Preemergence herbicidal evaluation, GALAP (Galium)
# Procedure, shortened: as §1
# [5] = system: ORYZA SATIVA, L. TEBONNET; assay: Postemergence herbicidal evaluation, ORYSAT (Rice, Tebonnet)
# Procedure: as §2, §3
# [6] = system: ABUTILON THEOPHRASTI, MEDIC.; assay: Postemergence herbicidal evaluation, ABUTH (Velvetleaf)
# Procedure: as §2, §3
# [7] = system: TRITICUM AESTIVUM, CV. APOLLO; assay: Preemergence herbicidal evaluation, TRZAWO (Wheat, Winter, CV. APOLLO)
# Procedure, shortened: as §1
# [8] = system: ORYZA SATIVA, L. TEBONNET; assay: Preemergence herbicidal evaluation, ORYSAT (Rice, Tebonnet)
# Procedure, shortened: as §1
# IPOMOEA SPP. = assay: Preemergence herbicidal evaluation, IPOSS (Morningglory Spp.)
# Procedure, shortened: as §1
# CASSIA OBTUSIFOLIA, L. [9] = assay: Preemergence herbicidal evaluation, CASOB (Sicklepod)
# Procedure, shortened: as §1
# [10] = system: AMBROSIA ARTEMISIIFOLIA, L.; assay: Postemergence herbicidal evaluation, AMBEL (Ragweed, Common)
# Procedure: as §2, §3
# [11] = system: SETARIA VIRIDIS, (L) BEAU; assay: Preemergence herbicidal evaluation, SETVI (Foxtail, Green)
# Procedure, shortened: as §1
# [12] = system: ECHINOCHLOA CRUS-GALLI, (L) BEAU; assay: Postemergence herbicidal evaluation, ECHCG (Barnyardgrass)
# Procedure, shortened: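 Plants raised roughly two weeks in flats received a foliar spray equivalent to 0.125–0.500 kg/ha, then stayed on greenhouse benches under normal care. Rating (0–9 scale, relative to control) followed four to five weeks on, with data from multiple tests averaged.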
# ZEA MAYS L. [13] = assay: Preemergence herbicidal evaluation, ZEAMX (Corn, Field)
# Procedure, shortened: as §1
# CHENOPODIUM ALBUM, L. [14] = assay: Postemergence herbicidal evaluation, CHEAL (Lambsquarters, Common)
# Procedure: as §2, §3
# [15] = system: AMBROSIA ARTEMISIIFOLIA, L.; assay: Preemergence herbicidal evaluation, AMBEL (Ragweed, Common)
# Procedure, shortened: as §1
# CASSIA OBTUSIFOLIA, L. [16] = assay: Postemergence herbicidal evaluation, CASOB (Sicklepod)
# Procedure: as §2, §3
# [17] = system: ABUTILON THEOPHRASTI, MEDIC.; assay: Preemergence herbicidal evaluation, ABUTH (Velvetleaf)
# Procedure, shortened: as §1
smiles,measurement,setting,value
"CC(C)OC(=O)Cn1c(=O)n(C)c(=O)n(-c2cc(N3C(=O)C4=C(CCCC4)C3=O)c(F)cc2Cl)c1=O [Compound 4, Isopropyl 3-[2-chloro-5-(1-cyclohexene-1,2-dicarboximido)-4-fluorophenyl]tetrahydro-5-methyl-2,4,6-trioxo-s-triazine-1(2H)-acetate]",Herbicide rating (0-9) CHEAL,"CHENOPODIUM ALBUM, L. [1]; 0.125 kg/ha",9.0
same,Herbicide rating (0-9) CHEAL,"CHENOPODIUM ALBUM, L. [1]; 0.250 kg/ha",9.0
same,Herbicide rating (0-9) CHEAL,"CHENOPODIUM ALBUM, L. [1]; 0.500 kg/ha",9.0
same,Herbicide rating (0-9) ZEAMX,ZEA MAYS L. [2]; 0.125 kg/ha,4.5
same,Herbicide rating (0-9) ZEAMX,ZEA MAYS L. [2]; 0.250 kg/ha,4.5
same,Herbicide rating (0-9) ZEAMX,ZEA MAYS L. [2]; 0.500 kg/ha,4.5
same,Herbicide rating (0-9) ECHCG,[3]; 0.125 kg/ha,0.0
same,Herbicide rating (0-9) ECHCG,[3]; 0.250 kg/ha,0.0
same,Herbicide rating (0-9) ECHCG,[3]; 0.500 kg/ha,0.0
same,Herbicide rating (0-9) GLXMAW,[4]; 0.125 kg/ha,0.0
same,Herbicide rating (0-9) GLXMAW,[4]; 0.250 kg/ha,0.0
same,Herbicide rating (0-9) GLXMAW,[4]; 0.500 kg/ha,0.0
same,Herbicide rating (0-9) GALAP,GALIUM APARINE; 0.125 kg/ha,9.0
same,Herbicide rating (0-9) GALAP,GALIUM APARINE; 0.250 kg/ha,9.0
same,Herbicide rating (0-9) GALAP,GALIUM APARINE; 0.500 kg/ha,9.0
same,Herbicide rating (0-9) ORYSAT,[5]; 0.125 kg/ha,4.0
same,Herbicide rating (0-9) ORYSAT,[5]; 0.250 kg/ha,4.0
same,Herbicide rating (0-9) ORYSAT,[5]; 0.500 kg/ha,4.0
same,Herbicide rating (0-9) ABUTH,[6]; 0.125 kg/ha,9.0
same,Herbicide rating (0-9) ABUTH,[6]; 0.250 kg/ha,9.0
same,Herbicide rating (0-9) ABUTH,[6]; 0.500 kg/ha,9.0
"COC(=O)Cn1c(=O)n(C)c(=O)n(-c2cc(N3C(=O)C4=C(CCCC4)C3=O)ccc2F)c1=O [Compound 5, Methyl 3-[5-(1-cyclohexene-1,2-dicarbox-imido)-2-fluorophenyl]tetrahydro-5-methyl-2,4,6-trioxo-s-triazine-1(2H)-acetate]",Herbicide rating (0-9) CHEAL,"CHENOPODIUM ALBUM, L. [1]; 0.125 kg/ha",0.0
same,Herbicide rating (0-9) CHEAL,"CHENOPODIUM ALBUM, L. [1]; 0.250 kg/ha",0.0
same,Herbicide rating (0-9) CHEAL,"CHENOPODIUM ALBUM, L. [1]; 0.500 kg/ha",0.0
same,Herbicide rating (0-9) TRZAWO,[7]; 0.125 kg/ha,0.0
same,Herbicide rating (0-9) TRZAWO,[7]; 0.250 kg/ha,0.0
same,Herbicide rating (0-9) TRZAWO,[7]; 0.500 kg/ha,0.0
same,Herbicide rating (0-9) ORYSAT,[8]; 0.125 kg/ha,0.0
same,Herbicide rating (0-9) ORYSAT,[8]; 0.250 kg/ha,0.0
same,Herbicide rating (0-9) ORYSAT,[8]; 0.500 kg/ha,0.0
same,Herbicide rating (0-9) IPOSS,IPOMOEA SPP.; 0.125 kg/ha,0.0
same,Herbicide rating (0-9) IPOSS,IPOMOEA SPP.; 0.250 kg/ha,0.0
same,Herbicide rating (0-9) IPOSS,IPOMOEA SPP.; 0.500 kg/ha,0.0
same,Herbicide rating (0-9) CASOB,"CASSIA OBTUSIFOLIA, L. [9]; 0.125 kg/ha",0.0
same,Herbicide rating (0-9) CASOB,"CASSIA OBTUSIFOLIA, L. [9]; 0.250 kg/ha",0.0
same,Herbicide rating (0-9) CASOB,"CASSIA OBTUSIFOLIA, L. [9]; 0.500 kg/ha",0.0
same,Herbicide rating (0-9) ECHCG,[3]; 0.125 kg/ha,0.0
same,Herbicide rating (0-9) ECHCG,[3]; 0.250 kg/ha,0.0
same,Herbicide rating (0-9) ECHCG,[3]; 0.500 kg/ha,0.0
same,Herbicide rating (0-9) AMBEL,[10]; 0.125 kg/ha,2.0
same,Herbicide rating (0-9) AMBEL,[10]; 0.250 kg/ha,2.0
same,Herbicide rating (0-9) AMBEL,[10]; 0.500 kg/ha,2.0
same,Herbicide rating (0-9) SETVI,[11]; 0.125 kg/ha,0.0
same,Herbicide rating (0-9) SETVI,[11]; 0.250 kg/ha,0.0
same,Herbicide rating (0-9) SETVI,[11]; 0.500 kg/ha,0.0
same,Herbicide rating (0-9) GLXMAW,[4]; 0.125 kg/ha,0.0
same,Herbicide rating (0-9) GLXMAW,[4]; 0.250 kg/ha,0.0
same,Herbicide rating (0-9) GLXMAW,[4]; 0.500 kg/ha,0.0
same,Herbicide rating (0-9) ECHCG,[12]; 0.125 kg/ha,0.0
same,Herbicide rating (0-9) ECHCG,[12]; 0.250 kg/ha,0.0
same,Herbicide rating (0-9) ECHCG,[12]; 0.500 kg/ha,0.0
same,Herbicide rating (0-9) GALAP,GALIUM APARINE; 0.125 kg/ha,0.0
same,Herbicide rating (0-9) GALAP,GALIUM APARINE; 0.250 kg/ha,0.0
same,Herbicide rating (0-9) GALAP,GALIUM APARINE; 0.500 kg/ha,0.0
same,Herbicide rating (0-9) ZEAMX,ZEA MAYS L. [13]; 0.125 kg/ha,0.0
same,Herbicide rating (0-9) ZEAMX,ZEA MAYS L. [13]; 0.250 kg/ha,0.0
same,Herbicide rating (0-9) ZEAMX,ZEA MAYS L. [13]; 0.500 kg/ha,0.0
same,Herbicide rating (0-9) CHEAL,"CHENOPODIUM ALBUM, L. [14]; 0.125 kg/ha",0.0
same,Herbicide rating (0-9) CHEAL,"CHENOPODIUM ALBUM, L. [14]; 0.250 kg/ha",0.0
same,Herbicide rating (0-9) CHEAL,"CHENOPODIUM ALBUM, L. [14]; 0.500 kg/ha",0.0
same,Herbicide rating (0-9) AMBEL,[15]; 0.125 kg/ha,0.0
same,Herbicide rating (0-9) AMBEL,[15]; 0.250 kg/ha,0.0
same,Herbicide rating (0-9) AMBEL,[15]; 0.500 kg/ha,0.0
same,Herbicide rating (0-9) CASOB,"CASSIA OBTUSIFOLIA, L. [16]; 0.125 kg/ha",0.0
same,Herbicide rating (0-9) CASOB,"CASSIA OBTUSIFOLIA, L. [16]; 0.250 kg/ha",0.0
same,Herbicide rating (0-9) CASOB,"CASSIA OBTUSIFOLIA, L. [16]; 0.500 kg/ha",0.0
same,Herbicide rating (0-9) ABUTH,[17]; 0.125 kg/ha,0.0
same,Herbicide rating (0-9) ABUTH,[17]; 0.250 kg/ha,0.0
same,Herbicide rating (0-9) ABUTH,[17]; 0.500 kg/ha,0.0
